Active and inactive are the calls of the source. The rule behind the calls is not given here.
Test: Luciferase light induction in v cholerae bh1651, agonist dose response, confirmatory (AID 624254)
Settings: V. cholerae BH1651 luxOD47E, luciferase light induction, 6 h; at 50 µM (top of the series)

Structure (SMILES) | activation (light increase)
COc1ccccc1NC(=O)Cc1csc(NC(=S)Nc2ccccc2)n1 | inactive
Cc1ccc(C)c(OCCC(=O)OCC(=O)NC2CC2)c1 | inactive
N#CCSc1ccccc1NC(=O)COC(=O)CCNC(=O)c1ccc([N+](=O)[O-])cc1 | inactive
CCCOc1ccc(NS(=O)(=O)c2cn(C)cn2)cc1 | inactive
CC1CCN(c2ccccc2NC(=O)c2cc3ccccc3o2)CC1 | inactive
O=C(CN1CCC(O)(c2cccc(C(F)(F)F)c2)CC1)NCCc1ccccc1 | inactive
C=Cn1c(C(=O)O)ccc1-c1ccc(CC)cc1 | inactive
COc1ccccc1NS(=O)(=O)c1cn(C)cn1 | inactive
S=C(c1ccc(N2CCOCC2)cc1)N1CCCCC1 | inactive
COc1cc(S(=O)(=O)N(Cc2cccs2)C2CC2)ccc1-n1cnnn1 | inactive
CCN(CC)c1ccc(CNc2nnnn2C)cc1 | inactive
Cc1ccc(C(=O)OCC(=O)Nc2ccccc2)cc1NC(=O)c1ccco1 | inactive
CCC(C)(C)n1nnnc1CN1CCN(c2nc3ccc(C)cc3cc2C#N)CC1 | inactive
Clc1ncnc2scc(-c3ccccc3)c12 | inactive
CC(=O)c1ccc(Oc2cc(C)nc(NCc3ccccc3)n2)cc1 | inactive
Cc1ccc(S(=O)(=O)NCCC(=O)O)cc1 | inactive
O=C(c1cc(-c2ccc3c(c2)OCO3)on1)N1CCN(c2ccc(F)cc2)CC1 | inactive
Cc1cccc(OCC(=O)N(C)CCc2ccccn2)c1 | inactive
COc1cc(C(C)=O)ccc1OCC(=O)Nc1cc(Cl)ccc1-n1cncn1 | inactive
Brc1ccc(C2=Nn3c(nnc3-c3n[nH]c4c3CCC4)SC2)cc1 | inactive
O=C(NCCS(=O)(=O)N1CCN(c2ccccc2)CC1)c1ccco1 | inactive
CCCCNC(=O)COC(=O)c1ccc(N(C)C)cc1 | inactive
COC(=O)c1cc(COC(=O)c2ccc(OC)c(S(=O)(=O)N3CCCC3)c2)oc1C | inactive
O=C(c1cc2ccccc2cc1O)N1CCN(c2ccccc2O)CC1 | inactive
CC(=O)Nc1ccc(Nc2nc(C)nc3c2oc2ccccc23)cc1 | inactive

Structure (SMILES) | activation (light increase)
CC(=O)Nc1ccc(S(=O)(=O)NCCC(=O)OCC(=O)c2cc(C)ccc2C)cc1 | inactive
COc1ccccc1NC(=O)COC(=O)c1oc2ccccc2c1C | inactive
C[C@@H]1CN([C@H](C)CO)C(=O)c2cccc(NC(=O)C3CC3)c2O[C@@H]1CN(C)S(=O)(=O)c1cccs1 | inactive
O=c1[nH]c2ccccc2n1Cc1ccc(Cl)cc1 | inactive
Cn1nc(-c2ccc(OCC(=O)NCC3CCCO3)cc2)c2ccccc2c1=O (stereo not given) | inactive
COC(=O)Nc1ccc(S(=O)(=O)NCCO)cc1 | inactive
Cc1ccc(/C=C/C(=O)OCC(=O)NCCc2ccc(S(N)(=O)=O)cc2)o1 | inactive
CCOc1ccc(CNC(=O)Cn2c(=O)c3cccn3c3ccccc32)cc1 | inactive
COc1ccccc1NC(=O)COC(=O)c1cc2c(s1)CCC2 | inactive
COc1ccc(NS(=O)(=O)c2cccc(C(=O)N3CCCC(C)C3)c2)cc1 (stereo not given) | inactive
O=C(CC1NC(=O)NC1=O)Nc1ccc(Cl)cc1 (stereo not given) | inactive
CCOC(=O)N1CCN(C(=S)NCCOC)CC1 | inactive
COc1ccc(-c2nnn(CC(=O)c3ccc4c(c3)OCCO4)n2)cc1OC | inactive
COc1ccccc1CCNC(=O)C(=O)NCCC1CCCCN1S(=O)(=O)c1cccs1 (stereo not given) | inactive
COc1ccc(NC(=O)CSc2ccc3c(c2)OCCO3)cc1OC | inactive
Cc1cc(C(=O)OCC(=O)NC2CCCCC2)c(C)o1 | inactive
COc1ccccc1NC(=O)CN1CCN(c2ccccc2F)CC1 | inactive
CCS(=O)(=O)Nc1ccc(C(=O)OC)cc1 | inactive
Nc1nnc(-c2ccc(Cl)cc2Cl)s1 | inactive
Cc1cc(C)c(S(=O)(=O)Nc2ccccn2)c(C)c1 | inactive
CCOc1ccc(S(=O)(=O)Nc2ccc(C(=O)NCC(c3ccco3)N3CCCCC3)cc2)cc1 (stereo not given) | inactive
O=C(CN1C(=O)COc2ccccc21)c1ccc(Cl)cc1 | inactive
Cc1ccc(S(=O)(=O)Nc2cc(C(=O)NCCN(C)C)ccc2N2CCCCC2)cc1 | inactive
O=C(NCCOc1ccc(Cl)cc1)c1ccco1 | inactive
CCn1c(SCC(=O)Nc2ccc3c(c2)OCCO3)nnc1-c1ccccn1 | inactive

Structure (SMILES) | activation (light increase)
O=c1c2ccccc2nnn1CSc1nnc2ccccn12 | inactive
Cc1ccc(Oc2ccc(Cl)cc2NC(=O)c2cnccn2)cc1 | inactive
O=S(=O)(Nc1ccccn1)c1ccc(Oc2ccccc2)cc1 | inactive
O=C(COc1cccc(Cl)c1)Nc1ccccc1N1CCCCC1 | inactive
CCN1CCN(C(=O)c2ccc(COc3ccc(Cl)cc3)o2)CC1 | inactive
Cc1cccc(NC(=O)CSc2nc(=O)n(CCN3CCOCC3)c3c2CCCC3)c1C | inactive
COCCNc1nc2c(c(=O)n(Cc3ccc(OC)cc3)c(=O)n2C)n1C | inactive
COc1cc2c(cc1OC)C(c1ccc(C)cc1)NC(=O)C2 (stereo not given) | inactive
CCC1C(=O)NCCN1C(=O)CCc1nnc(CCc2ccc(OC)cc2)o1 (stereo not given) | inactive
O=C(COC(=O)c1ccc(Cl)nc1)Nc1ccc2ccccc2c1 | inactive
Cc1cc2oc(=O)cc(CN3CCC(C)CC3)c2cc1Cl | inactive
CCCOc1cc(C)c(S(=O)(=O)NCCOC)cc1C | inactive
Cc1ccc(C)c(S(=O)(=O)Nc2ccc(-n3cnnn3)cc2)c1 | inactive
CN(CC(=O)Nc1ccc(OC(F)(F)F)cc1)C(=O)C1CCC1 | inactive
Cc1cc(C(=O)CSc2nnc(-c3ccco3)o2)c(C)n1CC1COc2ccccc2O1 (stereo not given) | inactive
O=C(O)c1cn[nH]c1-n1cnnn1 | inactive
CCC(C)NC(=O)Cc1ccc(-c2ccccc2)cc1 (stereo not given) | inactive
CCCn1nnnc1NCc1ccc(CC)cc1 | inactive
CC(=O)Nc1ccc2nc(-c3cccnc3)[nH]c2c1 | inactive
CCCn1nnnc1NCc1ccc(SC)cc1 | inactive
CCC1(CC)NC(=O)N(CC(=O)OCC(=O)NC(=O)c2ccccc2OC)C1=O | inactive
Cc1cc(NC2CCCCC2)nc(-c2ccccc2O)n1 | inactive
C[C@@H]1CN([C@@H](C)CO)C(=O)c2cccc(NC(=O)C3CC3)c2O[C@@H]1CN(C)S(=O)(=O)c1cccs1 | inactive
Cc1ccc(C)c(N2CCN(C(c3ccc(N(C)C)cc3)c3nnnn3C(C)(C)C)CC2)c1 (stereo not given) | inactive
O=C(Nc1ccc(S(=O)(=O)Nc2ncccn2)cc1)C1CC(=O)N(c2ccccc2)C1 (stereo not given) | inactive

Structure (SMILES) | activation (light increase)
COc1ccc(Cl)cc1NC(=O)COC(=O)c1cc(C)oc1C | inactive
O=C(NCC(F)(F)F)Nc1ncccn1 | inactive
Cc1cc(C(=O)OCC(=O)Nc2c(Cl)cccc2C(F)(F)F)c(C)o1 | inactive
Cc1ccc(C)c(C(=O)CN2C(=O)NC3(CCCCCC3)C2=O)c1 | inactive
CC1CCCN(C(=O)c2ccc3c(=O)n(Cc4ccc5c(c4)OCO5)c(=S)[nH]c3c2)C1 (stereo not given) | inactive
Cn1c(CNc2cccc(Cl)c2)nnc1SCC(=O)OC1CCCCC1 | inactive
CC(C)OC(=O)CSc1nnc(SCc2cccc3ccccc23)s1 | inactive
CCOC(=O)C1CCN(C(=O)C2c3ccccc3C(=O)N(C)C2c2ccc(OC)cc2)CC1 (stereo not given) | inactive
COc1ccc(CNC(=O)c2ccc(Cl)c(S(=O)(=O)N3CCOCC3)c2)cc1OC | inactive
Cc1ccc(OCCNC(=O)c2ccco2)cc1C | inactive
CCOC(=O)CC1C(=O)NCCN1C(=O)c1cccc(C(F)(F)F)c1 (stereo not given) | inactive
CCc1sc(N(C(=O)Cc2ccccc2)c2cccc(F)c2)nc1-c1ccc(C)cc1 | inactive
Cc1noc(C)c1NC(=O)Nc1cccc2c1O[C@@H](CN(C)S(=O)(=O)c1cccs1)[C@@H](C)CN([C@H](C)CO)C2=O | inactive
CCCCCn1nc(C(=O)N(CC(C)C)c2c(N)n(CCCC)c(=O)[nH]c2=O)c2ccccc2c1=O | inactive
COc1ccc(NC(=O)C(=O)NCC2CCCN2S(=O)(=O)c2ccc(C)cc2)cc1 (stereo not given) | inactive
COc1ccccc1NC(=O)Cc1ccc(-c2ccccc2)cc1 | inactive
CC(C)[C@H](NC(=O)c1ccccc1F)C(=O)OCC(=O)NC1CC1 | inactive
Cc1ccc2cc(C(c3nnnn3C3CCCC3)N3CCN(c4ccc(F)cc4)CC3)c(=O)[nH]c2c1 (stereo not given) | inactive
Cc1nc2ccc(C(=O)OCC(=O)N(C)c3ccccc3)cc2nc1C | inactive
Cc1ccccc1OCC(=O)OCC(=O)N1CCCc2ccccc21 | inactive
CCC(CCC(=O)Nc1cccc(C(=O)O)c1)C(=O)O (stereo not given) | inactive
O=C(CCc1nc(-c2ccccc2)no1)N1CCCC1 | inactive
COc1cccc(-c2nc(OC(C)C)c3ccccc3n2)c1 | inactive
CN(C)S(=O)(=O)c1cccc(NC(=O)COC(=O)c2ccc(Br)o2)c1 | inactive
CCNC(=O)CCSc1nnc(-c2ccco2)o1 | inactive
